Test results published in patent US20230233569A1 (Revolution Medicines, Inc., priority 2020, published 2023).
Where two headings read alike, the source gives them in different places.

Tests used:
[1] = tested on: Capan-1 (K-Ras G12V); test: CellTiter-Glo cell viability assay, 5-day treatment; assay type: cell-based; settings: Homo sapiens, CAPAN-1, 120 h, 5-day treatment; read-out: Capan-1 Cell Viability assay data (K-Ras G12V, IC50)
Procedure, shortened: (§1)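 Luminescence read-out after 5 days of compound exposure, with plates first brought to room temperature for roughly 30 minutes. Values are percent of averaged DMSO wells, fitted by four-parameter logistic regression.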

[2] = tested on: NCI-H358 (K-Ras G12C); test: as above; assay type: cell-based; settings: Homo sapiens, NCI-H358, 120 h, 5-day treatment; read-out: H358 Cell Viability assay data (K-Ras G12C, IC50)
Procedure, shortened: as §1

[3] = target: KRAS G13C (Homo sapiens, UniProt P01116+P62937, G13C); test: Disruption of BRAF RBD interaction with Ras (FRET / MOA assay, with Cyclophilin A); assay type: biochemical
Procedure, shortened: (§2)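 TR-FRET: nucleotide-loaded K-Ras mutant or WT with Cyclophilin A and BRAF RBD, compound 10-point 3-fold from 30 μM final, 3 h at 25° C, then anti-His Eu (10 nM) and anti-GST APC (50 nM) for 1.5 h. Decreased FRET ratio versus DMSO gives IC50.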

[4] = target: KRAS G12S (Homo sapiens, UniProt P01116+P62937, G12S); test: as above; assay type: biochemical
Procedure, shortened: as §2

[5] = target: KRAS G12V (Homo sapiens, UniProt P01116+P62937, G12V); test: as above; assay type: biochemical
Procedure, shortened: as §2

[6] = target: KRAS G12D (Homo sapiens, UniProt P01116+P62937, G12D); test: as above; assay type: biochemical
Procedure, shortened: as §2

[7] = target: NRAS G12C (Homo sapiens, UniProt P01111+P62937, G12C); test: as above; assay type: biochemical
[8] = target: KRAS G13D (Homo sapiens, UniProt P01116+P62937, G13D); test: as above; assay type: biochemical
Procedure, shortened: as §2

[9] = target: KRAS WT (Homo sapiens, UniProt P01116+P62937); test: as above; assay type: biochemical
Procedure, shortened: as §2

[10] = target: KRAS G12C (Homo sapiens, UniProt P01116+P62937, G12C); test: as above; assay type: biochemical
Procedure, shortened: as §2

[11] = KRAS G12V FRET data IC50, KRAS G12V
[12] = NRAS G12C FRET data IC50, NRAS G12C
[13] = KRAS G13D FRET data IC50, KRAS G13D
[14] = KRAS WT FRET data IC50, KRAS WT
[15] = read-out: KRAS G13C FRET data, IC50
[16] = read-out: KRAS G12S FRET data, IC50
[17] = KRAS G12V, read-out: KRAS G12V FRET data IC50
[18] = read-out: KRAS G12D FRET data, IC50
[19] = NRAS G12C, read-out: NRAS G12C FRET data IC50
[20] = KRAS G13D, read-out: KRAS G13D FRET data IC50
[21] = KRAS WT, read-out: KRAS WT FRET data IC50
[22] = read-out: KRAS G12C FRET data, IC50

Sequence of KRAS WT (P01116 1-169 isoform P01116-2 limits assumed): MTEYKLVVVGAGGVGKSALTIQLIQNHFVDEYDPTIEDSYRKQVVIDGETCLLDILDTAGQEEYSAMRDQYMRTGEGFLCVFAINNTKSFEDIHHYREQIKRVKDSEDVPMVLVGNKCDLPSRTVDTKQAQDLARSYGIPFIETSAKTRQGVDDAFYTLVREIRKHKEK
Sequence of KRAS WT (P62937 whole entry): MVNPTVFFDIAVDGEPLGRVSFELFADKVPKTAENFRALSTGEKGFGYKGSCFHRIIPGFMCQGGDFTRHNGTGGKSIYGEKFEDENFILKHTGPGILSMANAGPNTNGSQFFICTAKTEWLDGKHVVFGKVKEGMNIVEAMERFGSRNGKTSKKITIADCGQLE
Sequence of KRAS G12S (P01116 1-169 isoform P01116-2 G12S limits assumed): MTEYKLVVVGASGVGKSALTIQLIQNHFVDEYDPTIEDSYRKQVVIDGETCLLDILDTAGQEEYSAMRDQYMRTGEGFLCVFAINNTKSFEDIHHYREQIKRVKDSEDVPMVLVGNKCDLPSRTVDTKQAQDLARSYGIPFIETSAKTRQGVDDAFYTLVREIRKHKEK
Sequence of KRAS G12S (P62937 whole entry): as the sequence (P62937 whole entry) above
Sequence of KRAS G13D (P01116 1-169 isoform P01116-2 G13D limits assumed): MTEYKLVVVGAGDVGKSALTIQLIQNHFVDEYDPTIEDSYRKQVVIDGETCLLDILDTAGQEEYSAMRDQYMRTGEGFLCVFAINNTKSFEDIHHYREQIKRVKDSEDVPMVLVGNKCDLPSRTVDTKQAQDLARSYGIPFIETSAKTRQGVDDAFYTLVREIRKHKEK
Sequence of KRAS G13D (P62937 whole entry): as the sequence (P62937 whole entry) above
Sequence of KRAS G12C (P01116 1-169 isoform P01116-2 G12C): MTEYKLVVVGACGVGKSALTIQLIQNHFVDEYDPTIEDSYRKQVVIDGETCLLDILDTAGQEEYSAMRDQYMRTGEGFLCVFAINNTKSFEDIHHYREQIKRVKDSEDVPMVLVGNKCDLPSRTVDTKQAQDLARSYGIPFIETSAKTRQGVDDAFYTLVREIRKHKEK
Sequence of KRAS G12C (P62937 whole entry): as the sequence (P62937 whole entry) above
Sequence of KRAS G13C (P01116 1-169 isoform P01116-2 G13C): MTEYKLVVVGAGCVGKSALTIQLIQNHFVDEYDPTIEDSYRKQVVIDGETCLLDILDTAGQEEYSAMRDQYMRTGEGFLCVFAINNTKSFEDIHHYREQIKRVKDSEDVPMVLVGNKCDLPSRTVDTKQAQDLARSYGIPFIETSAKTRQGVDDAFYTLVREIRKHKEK
Sequence of KRAS G13C (P62937 whole entry): as the sequence (P62937 whole entry) above
Sequence of KRAS G12D (P01116 1-169 isoform P01116-2 G12D limits assumed): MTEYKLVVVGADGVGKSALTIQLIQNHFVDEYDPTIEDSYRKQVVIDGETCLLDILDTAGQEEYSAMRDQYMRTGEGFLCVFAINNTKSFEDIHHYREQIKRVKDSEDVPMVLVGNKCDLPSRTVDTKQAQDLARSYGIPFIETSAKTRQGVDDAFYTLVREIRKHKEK
Sequence of KRAS G12D (P62937 whole entry): as the sequence (P62937 whole entry) above
Sequence of NRAS G12C (P01111 whole entry G12C): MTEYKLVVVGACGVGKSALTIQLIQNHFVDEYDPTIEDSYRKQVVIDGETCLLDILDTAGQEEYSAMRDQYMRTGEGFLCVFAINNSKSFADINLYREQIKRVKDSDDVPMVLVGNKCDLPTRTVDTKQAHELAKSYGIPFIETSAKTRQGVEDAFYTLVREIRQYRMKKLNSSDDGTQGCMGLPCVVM
Sequence of NRAS G12C (P62937 whole entry): as the sequence (P62937 whole entry) above
Sequence of KRAS G12V (P01116 1-169 isoform P01116-2 G12V limits assumed): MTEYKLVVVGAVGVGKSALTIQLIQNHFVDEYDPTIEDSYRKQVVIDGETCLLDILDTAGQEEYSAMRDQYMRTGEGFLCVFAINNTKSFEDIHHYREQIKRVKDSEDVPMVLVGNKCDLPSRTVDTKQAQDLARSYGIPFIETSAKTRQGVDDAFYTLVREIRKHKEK
Sequence of KRAS G12V (P62937 whole entry): as the sequence (P62937 whole entry) above

IC50 [2] | IC50 ([3]; KRAS G13C FRET data, IC50) | IC50 ([4]; KRAS G12S FRET data, IC50) | IC50 [5, 11] | IC50 ([6]; KRAS G12D FRET data, IC50) | IC50 [7, 12] | IC50 [8, 13] | IC50 [9, 14] | IC50 ([10]; KRAS G12C FRET data, IC50) | IC50 [3, 15] | IC50 [4, 16] | IC50 [5, 17] | IC50 [6, 18] | IC50 [7, 19] | IC50 [8, 20] | IC50 [9, 21] | IC50 [10, 22] | SMILES | IC50 [1]
100 to 1000 nM | 100 to 1000 nM | 100 to 1000 nM | 100 to 1000 nM | 1000 to 10000 nM | 100 to 1000 nM | 100 to 1000 nM | 100 to 1000 nM | 100 to 1000 nM |  |  |  |  |  |  |  |  | CCn1c(-c2cnccc2COC)c2c3cc(ccc31)-c1cc(O)cc(c1)C[C@H](NC(=O)[C@H](C(C)C)N(C)C(=O)[C@H]1CCCO1)C(=O)N1CCC[C@H](N1)C(=O)OCC(C)(C)C2 [Example A90] | 100 to 1000 nM
100 to 1000 nM |  |  |  |  |  |  |  |  | 100 to 1000 nM | 100 to 1000 nM | 100 to 1000 nM | 1000 to 10000 nM | 100 to 1000 nM | 1000 to 10000 nM | 100 to 1000 nM | 100 to 1000 nM | CCn1c(-c2cnccc2COC)c2c3cc(ccc31)-c1cc(O)cc(c1)C[C@H](NC(=O)[C@H](C(C)C)N(C)C(=O)[C@@H]1CCCO1)C(=O)N1CCC[C@H](N1)C(=O)OCC(C)(C)C2 [Example A91] | 100 to 1000 nM
100 to 1000 nM |  |  |  |  |  |  |  |  | 100 to 1000 nM | 100 to 1000 nM | 100 to 1000 nM | 1000 to 10000 nM | 100 to 1000 nM | 100 to 1000 nM | 100 to 1000 nM | 100 to 1000 nM | CCn1c(-c2cnccc2COC)c2c3cc(ccc31)-c1cc(O)cc(c1)C[C@H](NC(=O)[C@H](C(C)C)N(C)C(=O)[C@@H]1CCOC1)C(=O)N1CCC[C@H](N1)C(=O)OCC(C)(C)C2 [Example A94] | 100 to 1000 nM
100 to 1000 nM |  |  |  |  |  |  |  |  | 10 to 100 nM | 10 to 100 nM | 10 to 100 nM | 10 to 100 nM | 10 to 100 nM | 10 to 100 nM | 10 to 100 nM | 10 to 100 nM | CCn1c(-c2cccnc2[C@H](C)OC)c2c3cc(ccc31)-c1cc(O)cc(c1)C[C@H](NC(=O)[C@H](C(C)C)N(C)C(=O)[C@H]1CCN(C(=O)CN(C)C)C1)C(=O)N1CCC[C@H](N1)C(=O)OCC(C)(C)C2 [Example A95] | 100 to 1000 nM
100 to 1000 nM |  |  |  |  |  |  |  |  | 10 to 100 nM | 10 to 100 nM | 100 to 1000 nM | 10 to 100 nM | 10 to 100 nM | 10 to 100 nM | 10 to 100 nM | 10 to 100 nM | CCn1c(-c2cccnc2[C@H](C)OC)c2c3cc(ccc31)-c1cc(O)cc(c1)C[C@H](NC(=O)[C@H](C(C)C)N(C)C(=O)[C@H]1CCN(C)C1)C(=O)N1CCC[C@H](N1)C(=O)OCC(C)(C)C2 [Example A100] | 1000 to 10000 nM
1000 to 10000 nM |  |  |  |  |  |  |  |  | 10 to 100 nM | 100 to 1000 nM | 1000 to 10000 nM | 100 to 1000 nM | 100 to 1000 nM | 100 to 1000 nM | 100 to 1000 nM | 100 to 1000 nM | CCn1c(-c2cnccc2COC)c2c3cc(ccc31)-c1cc(O)cc(c1)C[C@H](NC(=O)[C@H](C(C)C)N(C)C(=O)OC1CN(C)C1)C(=O)N1CCC[C@H](N1)C(=O)OCC(C)(C)C2 [Example A101] | 1000 to 10000 nM
1000 to 10000 nM |  |  |  |  |  |  |  |  | 10 to 100 nM | 10 to 100 nM | 1000 to 10000 nM | 10 to 100 nM | 100 to 1000 nM | 10 to 100 nM | 10 to 100 nM | 10 to 100 nM | CCn1c(-c2cccnc2[C@H](C)OC)c2c3cc(ccc31)-c1cc(O)cc(c1)C[C@H](NC(=O)[C@H](C(C)C)N(C)C(=O)[C@H]1CCN(CCO)C1)C(=O)N1CCC[C@H](N1)C(=O)OCC(C)(C)C2 [Example A111] | 1000 to 10000 nM
100 to 1000 nM | 10 to 100 nM | 100 to 1000 nM | 100 to 1000 nM | 100 to 1000 nM | 100 to 1000 nM | 100 to 1000 nM | 100 to 1000 nM | 100 to 1000 nM |  |  |  |  |  |  |  |  | CCn1c(-c2cccnc2[C@H](C)OC)c2c3cc(ccc31)-c1cc(O)cc(c1)C[C@H](NC(=O)[C@H](C(C)C)N(C)C(=O)C1CCN3CCOCC13)C(=O)N1CCC[C@H](N1)C(=O)OCC(C)(C)C2 (some centres unmarked) [Example A123] | 100 to 1000 nM
